Measured values from US10351566B2, “Therapeutic compounds for pain and synthesis thereof” (priority 2015, dated 2019).
Entries after “also recorded” stand apart in the source; their conditions may differ. Read-outs that look alike come from different tables or passages of the source.

How the values were obtained:
[1] = format: in vivo, mice; conditions: Brain, SC, Mean
[2] = format: in vivo, rats; conditions: for Findings: PO, Rat
Protocol: The tolerability of Formula 1 was evaluated in mice and rats. […] The compound was also tolerated following a single dose of 100 mg/kg in the mouse.

[3] = format: in vivo; conditions: mice
Protocol: Fecal excretion of the parent compound was evaluated following oral administration of Formula 1 in mice at a dose of 50 mg/kg and intravenous administration at a dose of 5 mg/kg. Peak concentrations in feces were 150 μg/g and 33 μg/g from oral and intravenous dosing, respectively. These peak concentrations were generally achieved within 1 h post-oral dosing and within 5 min post-intravenous doing. The concentrations remained high (greater than 1 μg/g) even after 8 h post-dosing by both administration routes (FIG. 18).

[4] = system: selected targets (including some important cardiovascular safety-related targets); conditions: at 10 μM
Protocol: A Cerep activity screen was conducted and was negative against the selected targets at 10 μM (including some important cardiovascular safety-related targets) for Formula 1.

[5] = system: Taxol-induced neuropathic pain; experiment: Taxol-induced neuropathic pain in mice, oral route; format: in vivo; conditions: oral 50 mg/kg, study day 14, repeated daily dosing day 8 to day 14
[6] = target: CYP2C9 (Homo sapiens, UniProt P11712); experiment: Reversible CYP450 inhibition, cocktail format; format: biochemical; conditions: preliminary
Protocol: (§1) Preliminary in vitro studies on reversible inhibition of major CYP450 enzymes were conducted in a cocktail format for this compound. The IC50 values were 4 μM for CYP2C9, 5 μM for CYP2C19, and greater than 10 μM for CYP3A4, 2C8, 2D6, and 1A2. If total plasma concentrations in humans are less than 0.4 μM, then in vivo drug interaction studies in clinical trials may not be required for this compound.

[7] = target: T1, CYP1A2 (Homo sapiens, UniProt P05177); experiment: Reversible CYP450 inhibition, cocktail format; format: biochemical; conditions: 1A2, reversible inhibition, preliminary
T1 sequence (P05177 1-516): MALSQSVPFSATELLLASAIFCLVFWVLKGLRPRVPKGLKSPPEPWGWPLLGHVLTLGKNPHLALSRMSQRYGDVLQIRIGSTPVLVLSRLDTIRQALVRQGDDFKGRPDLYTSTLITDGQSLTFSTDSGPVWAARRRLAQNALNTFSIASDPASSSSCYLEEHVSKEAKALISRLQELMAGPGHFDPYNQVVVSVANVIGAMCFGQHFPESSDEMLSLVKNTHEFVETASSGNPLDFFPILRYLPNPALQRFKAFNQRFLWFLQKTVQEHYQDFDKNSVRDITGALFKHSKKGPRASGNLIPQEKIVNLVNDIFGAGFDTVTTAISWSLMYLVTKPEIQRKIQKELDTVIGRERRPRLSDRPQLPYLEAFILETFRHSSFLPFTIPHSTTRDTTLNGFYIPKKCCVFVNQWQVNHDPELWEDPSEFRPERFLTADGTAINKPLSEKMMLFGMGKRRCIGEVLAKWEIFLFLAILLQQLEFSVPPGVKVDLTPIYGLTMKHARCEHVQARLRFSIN
Protocol: as §1

[8] = target: CYP2C19 (Homo sapiens, UniProt P33261); experiment: Reversible CYP450 inhibition, cocktail format; format: biochemical; conditions: preliminary
Protocol: as §1

[9] = target: CYP3A4 (Homo sapiens, UniProt P08684); experiment: Reversible CYP450 inhibition, cocktail format; format: biochemical; conditions: preliminary
Protocol: as §1

[10] = target: CYP2D6 (Homo sapiens, UniProt P10635); experiment: Reversible CYP450 inhibition, cocktail format; format: biochemical; conditions: 2D6, reversible inhibition, preliminary
Protocol: as §1

[11] = target: T2, CYP2C8 (Homo sapiens, UniProt P10632); experiment: Reversible CYP450 inhibition, cocktail format; format: biochemical; conditions: 2C8, reversible inhibition, preliminary
T2 sequence (P10632 1-490): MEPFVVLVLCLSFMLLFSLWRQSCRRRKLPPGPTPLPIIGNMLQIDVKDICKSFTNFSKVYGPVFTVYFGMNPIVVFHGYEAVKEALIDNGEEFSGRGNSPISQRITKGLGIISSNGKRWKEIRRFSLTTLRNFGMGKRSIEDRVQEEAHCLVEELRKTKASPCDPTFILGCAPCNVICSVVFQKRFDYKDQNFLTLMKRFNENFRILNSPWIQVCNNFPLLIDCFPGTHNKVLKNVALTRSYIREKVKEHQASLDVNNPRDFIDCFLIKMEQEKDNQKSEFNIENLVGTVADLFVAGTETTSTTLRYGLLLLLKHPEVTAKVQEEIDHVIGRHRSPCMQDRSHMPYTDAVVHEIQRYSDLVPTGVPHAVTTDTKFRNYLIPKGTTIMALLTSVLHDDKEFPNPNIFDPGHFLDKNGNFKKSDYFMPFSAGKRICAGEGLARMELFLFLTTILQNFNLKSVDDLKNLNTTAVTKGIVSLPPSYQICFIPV
Protocol: as §1

[12] = system: Taxol-induced neuropathic pain; experiment: Taxol-induced neuropathic pain in mice, oral route; format: in vivo
Protocol: Study outline in brief: Animals were dosed daily with Taxol for a period of 8 consecutive days (Day 0 to Day 7). On study day 8, prior to drug dosing, the decrease in withdrawal force (tactile allodynia) was verified by applying the von Frey test. After assigning the animals to their treatment groups, the animals were treated daily for a period of 5 days with either vehicle or Formula 1 at different doses. Gabapentin at a dose of 150 mg/kg was dosed only on days of testing (day 8 and day 14).
The activity of Formula 1 following oral administration was assessed using the Taxol model (see Study Outline in section 7.1). […] Gabapentin dosed at 150 mg/kg was active for a period of 4 h post-dosing.

[13] = Tolerability / repeated dosing safety in mice; format: in vivo; conditions: for Findings: Mice
Protocol: The tolerability of Formula 1 was evaluated in mice and rats.

Chain of CYP2C19 (P33261 whole entry): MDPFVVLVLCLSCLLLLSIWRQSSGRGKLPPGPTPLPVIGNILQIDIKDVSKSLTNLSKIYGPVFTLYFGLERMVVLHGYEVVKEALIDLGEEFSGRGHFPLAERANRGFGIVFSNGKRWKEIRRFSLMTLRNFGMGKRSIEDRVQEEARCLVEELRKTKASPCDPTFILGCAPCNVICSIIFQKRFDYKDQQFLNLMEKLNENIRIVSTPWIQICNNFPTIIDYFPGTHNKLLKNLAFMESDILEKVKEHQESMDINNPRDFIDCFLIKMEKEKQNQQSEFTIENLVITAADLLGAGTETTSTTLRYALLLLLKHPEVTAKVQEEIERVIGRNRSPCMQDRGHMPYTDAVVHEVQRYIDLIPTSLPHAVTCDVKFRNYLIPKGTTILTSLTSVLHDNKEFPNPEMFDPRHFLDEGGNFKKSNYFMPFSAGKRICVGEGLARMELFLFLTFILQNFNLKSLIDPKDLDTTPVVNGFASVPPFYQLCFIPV
Chain of CYP3A4 (P08684 whole entry): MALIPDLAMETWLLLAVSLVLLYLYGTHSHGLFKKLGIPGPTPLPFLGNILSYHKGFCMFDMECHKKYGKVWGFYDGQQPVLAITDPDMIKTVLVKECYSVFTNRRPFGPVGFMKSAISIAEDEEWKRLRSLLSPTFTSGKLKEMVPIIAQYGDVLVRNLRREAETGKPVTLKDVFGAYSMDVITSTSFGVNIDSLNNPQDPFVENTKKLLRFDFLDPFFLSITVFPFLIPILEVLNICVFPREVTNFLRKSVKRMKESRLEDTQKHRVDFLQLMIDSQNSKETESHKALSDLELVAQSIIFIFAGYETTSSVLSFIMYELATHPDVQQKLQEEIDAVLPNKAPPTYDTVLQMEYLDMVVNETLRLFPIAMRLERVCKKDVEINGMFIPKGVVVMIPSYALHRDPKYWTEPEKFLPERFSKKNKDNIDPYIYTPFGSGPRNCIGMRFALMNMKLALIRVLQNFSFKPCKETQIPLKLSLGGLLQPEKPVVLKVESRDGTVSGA
Chain of CYP2D6 (P10635 whole entry): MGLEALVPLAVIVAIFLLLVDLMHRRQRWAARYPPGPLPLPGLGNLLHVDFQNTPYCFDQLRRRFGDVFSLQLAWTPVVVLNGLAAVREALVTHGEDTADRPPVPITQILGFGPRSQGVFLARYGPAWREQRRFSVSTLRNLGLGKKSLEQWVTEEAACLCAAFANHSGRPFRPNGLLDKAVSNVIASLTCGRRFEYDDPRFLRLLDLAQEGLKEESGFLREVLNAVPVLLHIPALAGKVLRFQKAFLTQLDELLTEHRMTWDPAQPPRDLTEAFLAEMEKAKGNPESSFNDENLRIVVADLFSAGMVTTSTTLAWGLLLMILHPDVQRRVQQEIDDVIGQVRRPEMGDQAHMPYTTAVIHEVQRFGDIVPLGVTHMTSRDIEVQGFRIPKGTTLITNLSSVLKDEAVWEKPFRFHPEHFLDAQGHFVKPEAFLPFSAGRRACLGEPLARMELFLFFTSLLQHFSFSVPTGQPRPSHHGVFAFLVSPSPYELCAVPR
Chain of CYP2C9 (P11712 whole entry): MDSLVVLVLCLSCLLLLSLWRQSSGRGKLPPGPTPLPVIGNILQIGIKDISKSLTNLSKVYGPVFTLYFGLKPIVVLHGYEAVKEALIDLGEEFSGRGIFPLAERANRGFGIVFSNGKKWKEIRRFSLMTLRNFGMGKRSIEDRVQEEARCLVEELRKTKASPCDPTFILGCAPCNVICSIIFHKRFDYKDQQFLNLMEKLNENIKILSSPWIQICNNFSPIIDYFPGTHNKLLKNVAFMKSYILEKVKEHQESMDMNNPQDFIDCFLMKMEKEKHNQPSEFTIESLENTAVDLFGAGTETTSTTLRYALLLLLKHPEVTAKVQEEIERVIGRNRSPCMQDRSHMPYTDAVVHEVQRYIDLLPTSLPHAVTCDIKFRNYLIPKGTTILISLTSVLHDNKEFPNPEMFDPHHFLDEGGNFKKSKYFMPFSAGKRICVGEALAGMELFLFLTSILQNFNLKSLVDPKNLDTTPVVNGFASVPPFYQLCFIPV

For `CC(C)(C)C(=O)O[C@@H]1[C@@H]2[C@H]3C[C@H](C[C@@H]1N3Cc1ccccn1)CN2C(=O)CC(F)(F)F` (relative stereo) [Formula 1, (2S*,3S*,3aS*,6R*,7aR*)-1-(pyridin-2-ylmethyl)-4-(3,3,3-trifluoropropanoyl)octahydro-1H-2,6-methanopyrrolo[3,2-b]pyridin-3-yl pivalate], the HL_Lambda_z [1] was 0.39 h, the Findings ([2]; 50 mg/kg, 5 days) was “NPF” and the Findings ([2]; 100 mg/kg, 1 day) was “NPF”. The adverse effects ([2]; rats, oral, once daily 50 mg/kg for 5 days) was “did not show any adverse effects”, the “concentration in feces after 8 h post-dosing” value ([3]; intravenous 5 mg/kg) was “greater than 1 μg/g” and the “peak concentration in feces” value ([3]; intravenous 5 mg/kg) was 33 µg/g. For the same compound, the “time to peak concentration in feces” value ([3]; intravenous 5 mg/kg) was ≤ 5 min, the “concentration in feces after 8 h post-dosing” value ([3]; oral 50 mg/kg) was “greater than 1 μg/g” and the “peak concentration in feces” value ([3]; oral 50 mg/kg) was 150 µg/g. For the same compound, the “time to peak concentration in feces” value ([3]; oral 50 mg/kg) was ≤ 60 min, the “Cerep activity screen result” value [4] was “negative” and the withdrawal force [5] was “This activity was maintained”. For the same compound, the IC50 [6] was 4 µM, the IC50 [7] was > 10 µM and the IC50 [8] was 5 µM. The IC50 [9] was > 10 µM, the IC50 [10] was > 10 µM and the IC50 [11] was > 10 µM. The withdrawal force ([12]; Taxol mice, oral 50 mg/kg, 2 h post-single administration, study day 8) was “active in fully reversing the withdrawal force”, the withdrawal force ([12]; Taxol mice, oral 50 mg/kg, 24 h post-dosing (study day 14 pre-dosing)) was “significantly active” and the tolerance effect ([12]; Taxol mice, oral 50 mg/kg, repeated daily dosing) was “No tolerance effect was noted”. The “heat hyperalgesia (hotplate test)” value ([12]; Taxol mice, oral 50 mg/kg, 50 mg/kg) was “No activity was found; also recorded: not statistically different from the vehicle-treated group”, the “Dose of maximum activity” value ([12]; Taxol model, PO, mice) was <50 mg/kg and the “Duration of activity at maximum effect” value ([12]; Taxol model, PO, mice) was 24 H. For the same compound, the “Level of activity (% of maximum effect-baseline)” value ([12]; Taxol model, PO, mice) was 100%, the “Peak of activity (T)” value ([12]; Taxol model, PO, mice) was 2-6 H and the Findings ([13]; IP, 10 mg/kg, 31 days) was “NPF”. The Findings ([13]; IP, 30 mg/kg, 5 days) was “NPF”, the Findings ([13]; PO, 50 mg/kg, 5 days) was “NPF” and the Findings ([13]; SC, 60 mg/kg, 5 days) was “NPF”. For the same compound, the tolerability ([13]; mice, 5 days intraperitoneal dosing at 30 mg/kg) was “well tolerated”, the tolerability ([13]; mice, 5 days oral dosing at 50 mg/kg) was “well tolerated” and the tolerability ([13]; mice, 5 days subcutaneous dosing at 60 mg/kg) was “well tolerated”. The tolerability ([13]; mouse, single dose of 100 mg/kg) was “tolerated”.
